Assays:
[1] = molecular target: T1, HIV-1 RT-associated RNase H (Human immunodeficiency virus type 1 group M subtype B, UniProt P03366); assay: RNase H polymerase-independent cleavage assay; type: biochemical; conditions: for IC50: IC50, compound concentration required to reduce HIV-1 RT-associated RNase H activity by 50%, recombinant HIV-1 wt RT, hybrid RNA/DNA substrate, 37 °C, 1 hour
T1 construct: His-tagged p66/p51 HIV-1 RT group M subtype B; His tag; made in house; host or cells: Escherichia coli strain M15 (plasmid p6HRT-prot)
Procedure: The Ar^1 and Ar^2 aromatic segments of the molecule also approach the protein surface, through hydrophobic interactions. These findings provide important information for further structural optimization. All these newly designed thiazolone[3,2-a]pyrimidine derivatives were evaluated for their inhibitory activity against HIV RT-associated RNase H, using the diketo acid RDS1643 as positive control. […] The decrease in activity observed in compounds containing a sulfonic acid group might be attributed to the excessively strong acidity of the sulfonic acid group, which could protonate the diazo group within the molecule. […] When Ar^2 was changed from a phenyl group to a naphthyl group, the activity of compound 10f gained a great improvement over that of compound 10k. […] And when a negatively charged polar group was present at the 2-position of Ar^2, the inhibitory activity is enhanced. […]
3. Biology Experimental section
3.1 Expression and purification of recombinant HIV-1 RTs.
His-tagged p66/p51 HIV-1 RT group M subtype B coded in a p6HRT-prot plasmid was expressed in the Escherichia coli strain M15.1 Heterodimeric RTs were expressed essentially and purified as described.2 E. coli cells harboring the expression vector were cultured until reaching an optical density at 600 nm of 0.7. Induction of protein expression was achieved by treating the cells with 1.7 mM isopropyl β-D-1-thiogalactopyranoside (IPTG) for a duration of 4 hours. The subsequent purification of the protein was performed using a BioLogic LP system (BioRad) employing a combination of immobilized metal affinity chromatography and ion exchange […]
To initiate the purification process, the cell pellets were resuspended in lysis buffer at a ratio of 1:2 (cell pellet volume: lysis buffer volume). The lysis buffer used consisted of 50 mM sodium phosphate buffer with a pH of 7.8, supplemented with 0.5 mg/ml lysozyme. The resuspended cells were incubated on ice for 20 minutes. Following this, NaCl was added to achieve a final concentration of 0.3 M. The cells were then subjected to sonication, with four cycles of 60 seconds each, alternating between one second on and one second off. Subsequently, the cell lysate was centrifuged at 30, 000×g for 1 […]
The supernatant obtained from the centrifugation step was loaded onto a Ni2+-NTA-Sepharose column that had been pre-equilibrated with a loading buffer consisting of 50 mM sodium phosphate buffer (pH 7.8), 0.3 M NaCl, 10% glycerol, and 10 mM imidazole. The column was washed with a buffer containing 50 mM sodium phosphate buffer (pH 6.0), 0.3 M NaCl, 10% glycerol, and 80 mM imidazole. The target protein, RT, was eluted using an imidazole gradient ranging from 0.08 M to 0.5 M in the wash buffer. Fractions containing the enzyme were collected and combined, and then diluted 1:1 with 50 mM sodium phosphate buffer (pH 7.0) containing 10% glycerol. The diluted protein sample was loaded onto a Hi-trap heparin HP column that had been pre-equilibrated with 10 column volumes of a loading buffer consisting of 50 mM sodium phosphate buffer (pH 7.0), 10% glycerol, and 150 mM NaCl. The column was washed with the loading buffer, and the RT enzyme was eluted using Elute Buffer 2, which
(1 picture or pasted object on this page, not shown here) […]
comprised 50 mM sodium phosphate buffer (pH 7.0), 10% glycerol, and 1 M NaCl.
The eluted fractions containing the purified protein were collected, and the protein was subsequently dialyzed and stored in a buffer composed of 50 mM Tris-HCl (pH 7.0), 25 mM NaCl, 1 mM EDTA, and 50% glycerol. The catalytic activities of the purified protein samples were determined, and aliquots were stored at -80 °C for further use.
3.2 RNase H Polymerase-Independent Cleavage Assay
The HIV-1 RT-associated RNase H activity was measured as described.3 In summary, the reaction was performed in a black 96-well plate with a total volume of 100 μL. The reaction mix consisted of 50 mM Tris HCl (pH 7.8), 6 mM MgCl2, 1 mM dithiothreitol […]

SMILES | melting point | IC50 [1] | remaining activity at 100 µM ([1]; read-out: Percentage of the control activity measured at the indicated compound concentration)
COC(=O)C1=C(C)N=C2SC(=NNc3ccccc3C(=O)OC)C(=O)N2C1c1ccc(OC)c(OC)c1OC (stereo not shown) [Compound 11h, Methyl 2-(2-(2-(methoxycarbonyl)phenyl)hydrazineylidene)-7-methyl-3-oxo-5-(2,3,4-trimethoxyphenyl)-2,3-dihydro-5H-thiazolo[3,2-a]pyrimidine-6-carboxylate] | 200 to 202 °C | 10 ± 0.95 µM | 
COC(=O)C1=C(C)N=C2SC(=NNc3ccccc3C(C)=O)C(=O)N2C1c1ccc(OC)c(OC)c1OC (stereo not shown) [Compound 11i, Methyl 2-(2-(2-acetylphenyl)hydrazineylidene)-7-methyl-3-oxo-5-(2,3,4-trimethoxyphenyl)-2,3-dihydro-5H-thiazolo[3,2-a]pyrimidine-6-carboxylate] | 205 to 208 °C | > 100 µM | 100%
COC(=O)C1=C(C)N=C2SC(=NNc3cccc(C(=O)OC)c3)C(=O)N2C1c1ccc(OC)c(OC)c1OC (stereo not shown) [Compound 11j, Methyl 2-(2-(3-(methoxycarbonyl)phenyl)hydrazineylidene)-7-methyl-3-oxo-5-(2,3,4-trimethoxyphenyl)-2,3-dihydro-5H-thiazolo[3,2-a]pyrimidine-6-carboxylate] | 213 to 215 °C | 42.1 ± 9.78 µM | 
COC(=O)C1=C(C)N=C2SC(=NNc3cccc(C(C)=O)c3)C(=O)N2C1c1ccc(OC)c(OC)c1OC (stereo not shown) [Compound 11k, Methyl 2-(2-(3-acetylphenyl)hydrazineylidene)-7-methyl-3-oxo-5-(2,3,4-trimethoxyphenyl)-2,3-dihydro-5H-thiazolo[3,2-a]pyrimidine-6-carboxylate] | 216 to 219 °C | 22 ± 0.36 µM | 
COC(=O)C1=C(C)N=C2SC(=NNc3ccccc3C(C)=O)C(=O)N2C1c1ccc(OC)cc1 (stereo not shown) [Compound 12a, Methyl 2-(2-(2-acetylphenyl)hydrazineylidene)-5-(4-methoxyphenyl)-7-methyl-3-oxo-2,3-dihydro-5H-thiazolo[3,2-a]pyrimidine-6-carboxylate] | 199 to 201 °C | 3.98 ± 0.3 µM | 
COC(=O)C1=C(C)N=C2SC(=NNc3ccccc3C(=O)OC)C(=O)N2C1c1ccc(OC)cc1 (stereo not shown) [Compound 12b, Methyl 2-(2-(2-(methoxycarbonyl)phenyl)hydrazineylidene)-5-(4-methoxyphenyl)-7-methyl-3-oxo-2,3-dihydro-5H-thiazolo[3,2-a]pyrimidine-6-carboxylate] | 219 to 221 °C | 2.97 ± 0.88 µM | 
COC(=O)C1=C(C)N=C2SC(=NNc3cccc(C(=O)OC)c3)C(=O)N2C1c1ccc(OC)cc1 (stereo not shown) [Compound 12c, Methyl 2-(2-(3-(methoxycarbonyl)phenyl)hydrazineylidene)-5-(4-methoxyphenyl)-7-methyl-3-oxo-2,3-dihydro-5H-thiazolo[3,2-a]pyrimidine-6-carboxylate] | 209 to 211 °C | 4.71 ± 0.86 µM | 
COC(=O)C1=C(C)N=C2SC(=NNc3cc(OC)c(OC)c(OC)c3)C(=O)N2C1c1ccc(OC)cc1 (stereo not shown) [Compound 12e, Methyl 5-(4-methoxyphenyl)-7-methyl-3-oxo-2-(2-(3,4,5-trimethoxyphenyl)hydrazineylidene)-2,3-dihydro-5H-thiazolo[3,2-a]pyrimidine-6-carboxylate] | 204 to 206 °C | 8.99 ± 0.27 µM | 
COC(=O)C1=C(C)N=C2S/C(=N\Nc3ccc4ccccc4c3S(=O)(=O)O)C(=O)N2C1c1ccc(OC)cc1 (stereo not shown) [Compound 12f] | 271 to 273 °C | 3.28 µM | 
